According to the NIST ThermoML archive (doi:10.1021/je5010214):
± gives the expanded uncertainty stated by the source.

Conditions: Liquid, Vibrating tube method

CCCCO [butan-1-ol]
Conditions | mass density [kg/m3]
303.15 K, 21920 kPa | 817.555 ± 0.83
303.15 K, 24992 kPa | 819.44 ± 0.84
303.15 K, 31958 kPa | 823.711 ± 0.85
303.15 K, 32862 kPa | 824.267 ± 0.85
303.15 K, 33112 kPa | 824.372 ± 0.85
303.15 K, 34081 kPa | 824.9 ± 0.85
303.15 K, 34980 kPa | 825.355 ± 0.86
303.15 K, 37951 kPa | 827.164 ± 0.86
303.15 K, 39904 kPa | 828.27 ± 0.87
303.15 K, 42014 kPa | 829.398 ± 0.87
303.15 K, 44896 kPa | 831.035 ± 0.88
303.15 K, 47951 kPa | 832.781 ± 0.88
303.15 K, 50065 kPa | 833.864 ± 0.89
303.15 K, 52073 kPa | 834.942 ± 0.89
303.15 K, 55075 kPa | 836.525 ± 0.9
303.15 K, 57989 kPa | 838.099 ± 0.9
303.15 K, 59979 kPa | 839.13 ± 0.91
303.15 K, 62052 kPa | 840.165 ± 0.91
303.15 K, 64988 kPa | 841.599 ± 0.92
303.15 K, 66030 kPa | 842.119 ± 0.92
303.16 K, 100 kPa | 802.125 ± 0.81
303.16 K, 2964.9 kPa | 804.3 ± 0.81
303.16 K, 7045.6 kPa | 807.335 ± 0.81
303.16 K, 8858.2 kPa | 808.638 ± 0.82
303.16 K, 10014 kPa | 809.449 ± 0.82
303.16 K, 18021 kPa | 814.973 ± 0.83
303.16 K, 27933 kPa | 821.256 ± 0.84
303.16 K, 29990 kPa | 822.537 ± 0.85
308.15 K, 274.3 kPa | 798.317 ± 0.81
308.15 K, 494.1 kPa | 798.504 ± 0.81
308.15 K, 803.3 kPa | 798.75 ± 0.81
308.15 K, 1039.5 kPa | 798.954 ± 0.81
308.15 K, 1916.7 kPa | 799.642 ± 0.81
308.15 K, 2980.7 kPa | 800.489 ± 0.81
308.15 K, 4990.2 kPa | 802.048 ± 0.81
308.15 K, 6964.9 kPa | 803.548 ± 0.81
308.15 K, 8864.3 kPa | 804.962 ± 0.82
308.15 K, 9863.1 kPa | 805.692 ± 0.82
308.15 K, 12009 kPa | 807.267 ± 0.82
308.15 K, 17850 kPa | 811.315 ± 0.83
308.15 K, 19930 kPa | 812.759 ± 0.83
308.15 K, 21988 kPa | 814.131 ± 0.83
308.15 K, 25012 kPa | 816.144 ± 0.84
308.15 K, 27955 kPa | 817.999 ± 0.85
308.15 K, 29906 kPa | 819.191 ± 0.85
308.15 K, 31929 kPa | 820.41 ± 0.85
308.15 K, 32886 kPa | 820.911 ± 0.85
308.15 K, 32941 kPa | 821.059 ± 0.85
308.15 K, 34011 kPa | 821.636 ± 0.86
308.15 K, 37971 kPa | 823.987 ± 0.86
308.15 K, 40011 kPa | 825.154 ± 0.87
308.15 K, 41998 kPa | 826.392 ± 0.87
308.15 K, 45017 kPa | 828.081 ± 0.88
308.15 K, 48033 kPa | 829.748 ± 0.89
308.15 K, 50044 kPa | 830.856 ± 0.89
308.15 K, 51977 kPa | 831.933 ± 0.89
308.15 K, 54982 kPa | 833.542 ± 0.9
308.15 K, 58009 kPa | 835.036 ± 0.91
308.15 K, 60030 kPa | 836.098 ± 0.91
308.15 K, 61985 kPa | 837.136 ± 0.92
308.15 K, 64981 kPa | 838.691 ± 0.92
308.16 K, 85.2 kPa | 798.155 ± 0.81
308.16 K, 15069 kPa | 809.4 ± 0.82
308.16 K, 34949 kPa | 822.224 ± 0.86
308.16 K, 66088 kPa | 839.237 ± 0.92
313.15 K, 103.1 kPa | 794.254 ± 0.81
313.15 K, 316 kPa | 794.433 ± 0.81
313.15 K, 569.6 kPa | 794.643 ± 0.81
313.15 K, 1088.8 kPa | 795.074 ± 0.81
313.15 K, 2109.7 kPa | 795.902 ± 0.81
313.15 K, 3137 kPa | 796.707 ± 0.81
313.15 K, 5111.8 kPa | 798.292 ± 0.81
313.15 K, 6921.8 kPa | 799.704 ± 0.81
313.15 K, 9210.7 kPa | 801.445 ± 0.82
313.15 K, 10209 kPa | 802.164 ± 0.82
313.15 K, 12020 kPa | 803.525 ± 0.82
313.15 K, 15059 kPa | 805.716 ± 0.82
313.15 K, 17921 kPa | 807.72 ± 0.83
313.15 K, 19932 kPa | 809.082 ± 0.83
313.15 K, 22058 kPa | 810.55 ± 0.84
313.15 K, 24862 kPa | 812.41 ± 0.84
313.15 K, 27869 kPa | 814.438 ± 0.85
313.15 K, 29957 kPa | 815.731 ± 0.85
313.15 K, 32107 kPa | 817.091 ± 0.85
313.15 K, 32980 kPa | 817.674 ± 0.86
313.15 K, 33002 kPa | 817.783 ± 0.86
313.15 K, 33981 kPa | 818.214 ± 0.86
313.15 K, 35045 kPa | 818.819 ± 0.86
313.15 K, 38127 kPa | 820.76 ± 0.87
313.15 K, 41978 kPa | 822.973 ± 0.88
313.15 K, 44946 kPa | 824.676 ± 0.88
313.15 K, 47880 kPa | 826.39 ± 0.89
313.15 K, 52097 kPa | 828.677 ± 0.9
313.15 K, 54924 kPa | 830.321 ± 0.9
313.15 K, 58082 kPa | 831.994 ± 0.91
313.15 K, 59932 kPa | 832.96 ± 0.91
313.15 K, 62004 kPa | 834.048 ± 0.92
313.15 K, 64954 kPa | 835.652 ± 0.93
313.15 K, 66113 kPa | 836.222 ± 0.93
313.16 K, 860.7 kPa | 794.888 ± 0.81
313.16 K, 39997 kPa | 821.817 ± 0.87
313.16 K, 50021 kPa | 827.556 ± 0.89
318.15 K, 72.7 kPa | 790.456 ± 0.81
318.15 K, 150.1 kPa | 790.516 ± 0.81
318.15 K, 336.3 kPa | 790.675 ± 0.81
318.15 K, 1105.7 kPa | 791.334 ± 0.81
318.15 K, 1929.1 kPa | 792.026 ± 0.81
318.15 K, 2933.2 kPa | 792.866 ± 0.81
318.15 K, 8989 kPa | 797.678 ± 0.82
318.15 K, 10075 kPa | 798.523 ± 0.82
318.15 K, 11896 kPa | 799.896 ± 0.82
318.15 K, 18102 kPa | 804.461 ± 0.83
318.15 K, 19985 kPa | 805.78 ± 0.83
318.15 K, 22094 kPa | 807.257 ± 0.84
318.15 K, 29998 kPa | 812.541 ± 0.85
318.15 K, 33016 kPa | 814.458 ± 0.86
318.15 K, 37838 kPa | 817.415 ± 0.87
318.15 K, 40093 kPa | 818.817 ± 0.87
318.15 K, 44884 kPa | 821.648 ± 0.88
318.15 K, 47944 kPa | 823.402 ± 0.89
318.15 K, 54944 kPa | 827.433 ± 0.91
318.15 K, 57972 kPa | 829.016 ± 0.91
318.15 K, 59923 kPa | 830.12 ± 0.92
318.15 K, 65022 kPa | 832.785 ± 0.93
318.15 K, 66028 kPa | 833.327 ± 0.93
318.16 K, 590.9 kPa | 790.894 ± 0.81
318.16 K, 891 kPa | 791.16 ± 0.81
318.16 K, 5020.8 kPa | 794.556 ± 0.81
318.16 K, 6926.7 kPa | 796.098 ± 0.81
318.16 K, 14800 kPa | 802.072 ± 0.83
318.16 K, 24873 kPa | 809.191 ± 0.84
318.16 K, 27909 kPa | 811.139 ± 0.85
318.16 K, 31957 kPa | 813.824 ± 0.86
318.16 K, 34110 kPa | 815.009 ± 0.86
318.16 K, 35048 kPa | 815.63 ± 0.86
318.16 K, 41996 kPa | 819.89 ± 0.88
318.16 K, 49950 kPa | 824.565 ± 0.9
318.16 K, 52037 kPa | 825.741 ± 0.9
318.16 K, 61930 kPa | 831.241 ± 0.92
323.15 K, 95 kPa | 786.145 ± 0.81
323.15 K, 296.1 kPa | 786.326 ± 0.81
323.15 K, 528.4 kPa | 786.535 ± 0.81
323.15 K, 994.2 kPa | 786.944 ± 0.81
323.15 K, 2006.9 kPa | 787.814 ± 0.81
323.15 K, 2966.6 kPa | 788.632 ± 0.81
323.15 K, 4996.2 kPa | 790.328 ± 0.81
323.15 K, 7042.1 kPa | 792.001 ± 0.81
323.15 K, 9029.9 kPa | 793.564 ± 0.82
323.15 K, 10090 kPa | 794.392 ± 0.82
323.15 K, 11914 kPa | 795.8 ± 0.82
323.15 K, 15111 kPa | 798.229 ± 0.83
323.15 K, 17981 kPa | 800.333 ± 0.83
323.15 K, 20038 kPa | 801.815 ± 0.83
323.15 K, 21995 kPa | 803.198 ± 0.84
323.15 K, 24993 kPa | 805.264 ± 0.84
323.15 K, 32079 kPa | 809.955 ± 0.86
